Series [1] concerns HeLa cells. The series is described as follows: Co-transfection of ubiquilin-1 cDNA with GFP-Htt Exon 1 Q74 construct in HeLa cells. Type of series: cell-based. Here is the method: FIG. 9. […] Immunoblots showing GFP-immunoreactivity after biochemical fractionation of parallel sets of HeLa cells transfected with the constructs described in (A) into Triton-X100 soluble and pellet fractions. • D. Densitometric quantification of anti-GFP immunoreactive bands depicting the relative amount of GFP-irnmunoreaction found in the pellet compared to that the total (soluble and pellet fractions combined).
HeLa cells were grown in DME supplemented with 10% FBS. Cells were transiently transfected with plasmid DNA using by calcium phosphate coprecipitation. Stable HeLa cell lines were isolated by cotransfection of EGFP expression constructs with a pNeo plasmid and selection with G418. Stable cell lines were identified by GFP-fluorescence.
Cell death was monitored either through examination of the nuclear morphology observed after Hoechst 33342 (1 μg/ml) staining, or through detecting the membrane selective permeability following 3 μM of propidium iodide (PI) staining. Terminal deoxynucleotidyl Transferase Biotin-dUTP Nick End Labeling (TUNEL) staining was performed with DeadEnd Colorimetric TUNEL staining kits purchased from Promega. For detecting caspase-3 activation, two methods were used. Cell lysates were separated by SDS-PAGE and probed with an antibody against the cleaved substrate for caspase-3. Alternatively, caspase activity was also detected by flurogenic techniques by incubating the cell lysates with a flurogenic caspase-3 substrate, AC-DEVD-AMC in a 96-well plate. After incubation, the cleaved free AMC was scanned by a fluorescence multi-well plate reader (SOSTmax, Sunnyvale, CA) with an excitation at 380 nm (excitation) and emission at 460 nm (emission).
Having established that expression of GFP-tagged Htt-Exon1-polyglutamine fusion proteins in HeLa cells caused a polyglutamine-number dependent increase in intracellular inclusion formation, Triton-X100 insolubility, and cell death, it was necessary to examined what effect overexpression of ubiquilin-1 has on these properties. […]

For series [2], the system named is mouse cortical neurons. The series is described as follows: Ubiquilin-1 overexpression in mouse primary neuronal cultures transfected with GFP-HttPolyQ74. Type of series: cell-based. Here is the method:
FIG. 10. […] Mouse cortical neurons (14 days in vitro) were transiently transfected with pEGFP (3 μg each well, a), or pEGFP-HttExon-1polyQ(74) alone (3 μg each well, b), or cotransfected with both pEGFP-HttExon-1polyQ(74) and ubiquilin-1 cDNA with the ratio indicated (3 μg of pEGFP-HttExon-1polyQ(74) plus 1.5 μg or 3 μg of ubiquilin-1 cDNA; c, d).
B. Overexpression of ubiquilin-1 reduces formation of GFP-HttPolyQ(74) inclusions in cultured mouse neurons. […] Overexpression of ubiquilin-1 reduces GFP-HttPolyQ(74)-induced cell death in cultured mouse neurons. 30 hours following transfection, the cultures were stained with both Hoechst 33342 and propidium iodide (PI) and then subjected for fluorescent microscopy analysis. PI positively stained cells were treated as dead cells and only the green (GFP-positive) cells were included in the cell death analysis. Results are mean±SD.
Next it was investigated whether the modulation of polyglutamine aggregation and toxicity by ubiquilin-1 overexpression is manifested in neuronal cells, which might be more relevant in terms of controlling neurodegeneration in HD and related disorders. […] The insolubility of the Htt protein was not measured in these cells due difficulties in preparing reliable soluble and insoluble material from neurons and because of a limitation in the number for cells required for the assay.

In the case of “UBQLN1: PS-interacting protein ubiquilin-1, overexpressed in cells from a cDNA expression plasmid”, in series [1] (anti-GFP immunoblot), the “GFP-HttPolyQ74 fusion protein accumulation” value is “dose-dependent increase in accumulation”. Moreover, the “Triton-X100 solubility of GFP-HttPolyQ74 fusion protein” value in series [1] (biochemical fractionation) was “a greater proportion of the GFP-HttPolyQ74-fusion protein remained soluble”. Further, the cell death result in series [1] (increasing amounts of ubiquilin-1 cDNA vs GFP-Htt Exon-1PolyQ74 alone) was “dose-dependent decrease in cell death”. In series [2], the inclusion formation entry is on record as “decreased inclusion formation” and the neuronal cell death entry is “decreased GFP-HttPolyQ74-induced neuronal cell death”.

(Values after patent publication US20110166206A1, “UBIQUILIN REGULATION OF PRESENILIN ENDOPROTEOLYSIS, AND SUPPRESSION OF POLYGLUTAMINE-INDUCED TOXICITY IN CELLS” (UNIVERSITY OF MARYLAND BIOTECHNOLOGY INSTITUTE, priority 2005, published 2011).)
